Source: paper PMC11247486, “Improving the In Vivo Stability of [^52Mn]Mn(II) Complexes with 18-Membered Macrocyclic Chelators for PET Imaging” (Journal of Medicinal Chemistry, 2024)

Assays:
[1] = Cyclic voltammetry of the Mn(II) complexes; type: physicochemical; conditions: for peak-to-peak separation (ΔEp): 2 mM complex, pH ∼ 6.5
Procedure: Cyclic voltammetry experiments were performed with Mn-PYAN and Mn-CHXPYAN, using aqueous solutions with a complex concentration of 2 mM, containing 0.15 M NaCl as the supporting electrolyte (pH ∼ 6.5). The cyclic voltammograms obtained (Figure 3) show well-defined anodic and cathodic waves due to the Mn(II)/Mn(III) pair, which are characteristic of reversible or quasi-reversible processes. At the lowest scan rate (20 mV/s), the peak-to-peak separation (ΔEp) is slightly smaller for Mn-CHXPYAN than for Mn-PYAN, with values of 73 and 80 mV, respectively. When increasing the scan rate, ΔEp increases slightly, with values of 85 and 102 mV, respectively, at the highest scan rate (500 mV/s). This situation is characteristic of electrochemically quasi-reversible processes, although for Mn-CHXPYAN, the values of ΔEp are lower and present less variation with the scan rate.
This is likely related to ligand field effects due to the more symmetrical octahedral coordination around the metal ion in Mn-CHXPYAN than in Mn-PYAN, as evidenced by the shape measures mentioned above (Table S1, Supporting Information).[37] Indeed, high-spin Mn(III) complexes often display Jahn–Teller distorted octahedral coordination, while high-spin Mn(II) complexes lack any LFSE.[38],[39] The E1/2 values of 652 and 567 mV vs Ag/AgCl (3 M KCl) correspond to 862 and 777 mV vs NHE for Mn-PYAN and Mn-CHXPYAN, respectively.[40]
Cyclic voltammetry measurements were performed with a three-electrode configuration on an Autolab PGSTAT302 M potentiostat-galvanostat. A glassy-carbon disk (Metrohm 61204600) was used as the working electrode. The surface of this electrode was polished with α-Al2O3 (0.3 μm) and washed with distilled water before every measurement. The reference electrode used was a Ag/AgCl reference electrode filled with 3 M KCl (Metrohm 6.0726.100). A Pt wire was used as the counter electrode. The complex solutions (2 mM) containing […] were deoxygenated by bubbling nitrogen before each measurement.

[2] = 1H NMR relaxometry (relaxivity as a function of pH); type: physicochemical; conditions: around neutral pH, 61 MHz and 25 °C
Excerpt: The studies reported by Branco assumed the formation of a protonated [Mn(HL)]^3+ species for the Mn-PYAN complex characterized by protonation constant log KMnLH = 5.19 (KMnLH = [MnHL]/[MnL] × [H^+]).[42] However, our pH-potentiometric data could be fitted very well without considering the formation of protonated species or hydroxo-complexes. In order to confirm that the equilibrium model used to fit the pH-potentiometric data was correct, we measured the relaxivity (r1p) of aqueous solutions of the complexes as a function of pH (Figure 4). Relaxivity measures the ability of a paramagnetic solute to enhance the longitudinal relaxation rate of solvent water molecules, normalized for a 1 mM concentration of the paramagnetic ion.[45] The r1p values measured around neutral pH values (0.83 and 1.40 mM^–1 s^–1 at 61 MHz and 25 °C for Mn-PYAN and Mn-CHXPYAN, respectively) are typical of complexes that lack one or more water molecules in the inner coordination sphere, the observed relaxivity being the result of the outer-sphere contribution.[46] Relaxivity is fairly constant in the pH range of 6–9 but increases below pH ∼ 6 due to complex dissociation, reaching a relaxivity of 6.00 mM^–1 s^–1 at pH 3, 61 MHz, and 25 °C that is characteristic of the [Mn(H2O)6]^2+ complex.[47] The relaxivity profile matches the speciation diagrams calculated using the equilibrium constants obtained by pH potentiometry very well, which provides support for the equilibrium model used to fit the potentiometric data. It is worth noting that complex dissociation takes place at a lower pH for Mn-CHXPYAN than for Mn-PYAN, as expected, considering their pMn values.
The relaxivity values were calculated from the longitudinal relaxation time of H2O protons (T1) measured at 61 MHz on a Stelar relaxometer connected to a Bruker WP80 NMR electromagnet adapted to variable-field measurements (15–80 MHz proton Larmor frequency). […] The longitudinal relaxation time was measured with the “inversion recovery” method (180°–τ–90°) by using 12 different τ values with a typical 90° pulse width of 10.7 μs, 4 scans. […]

[3] = scan rate 500 mV/s, 0.15 M NaCl
[4] = vs Ag/AgCl (3 M KCl), 0.15 M NaCl

| SMILES | peak-to-peak separation (ΔEp) ([1]; scan rate 20 mV/s, 0.15 M NaCl) [mV] | peak-to-peak separation (ΔEp) [1, 3] [mV] | half wave potential (E1/2) [1, 4] [mV] | half wave potential (E1/2) ([1]; vs NHE) [mV] | relaxivity r1p [2] [mM^–1 s^–1] |
| --- | --- | --- | --- | --- | --- |
| [Mn+2].c1cc2nc(c1)CN[C@@H]1CCCC[C@H]1NCc1cccc(n1)CN[C@@H]1CCCC[C@H]1NC2 [Mn-CHXPYAN] | 73 | 85 | 567 | 777 | 1.40 |
| [Mn+2].c1cc2nc(c1)CNCCNCc1cccc(n1)CNCCNC2 [Mn-PYAN] | 80 | 102 | 652 | 862 | 0.83 |
